Assay results from patent publication US11384066B1, “Heterocyclic compounds useful as aurora a selective inhibitors” (Jacobio Pharmaceuticals Co., Ltd., priority 2020, dated 2022).

Assays:
Aurora A = Aurora A (Homo sapiens (Human), UniProt O14965); assay: Aurora A kinase assay (mobility shift assay); format: biochemical
Procedure: (§1) Example A: Evaluation of Aurora a and Aurora B Inhibitory Effect—Kinase Assay
(§2) The inhibitory activities of a test compound against Aurora A and Aurora B were measured according to the following method.
(§3) The IC50 value of Aurora A and Aurora B kinase was performed by Sundia MediTech Co. Ltd. using Mobility shift assay.
(§4) • (1) Prepare a 1× kinase buffer [50 mM 4-(2-hydroxyethyl)-1-piperazineethanesulfonic acid (HEPES), PH 7.5, 0.01% Brij-35, 10 mM MgCl2, 2 mM dithiothreitol (DTT)]. • (2) Prepare compound:
(§5) The testing compound was dissolved with DMSO. The testing compound was diluted up to 100× final concentration in a 384-well plate. Transfer 250 nL of the compound dilution to a 384-well assay plate using Echo 550. 100% DMSO of 250 nL was added to the negative control well and the positive control well. • (3) Prepare a 2.5× enzyme solution using the above 1× kinase buffer. • (4) Add 10 μL of the 2.5× enzyme solution to the compound well and the positive control well of the 384-well assay plate. Add 10 μL of the 1× kinase buffer to the negative control well. • (5) The 384-well plate was centrifuged at 1000 rpm for 30 seconds and incubated at room temperature for 10 min. • (6) A mixture of ATP and Kinase substrate 21 with a final concentration of 25/15× was prepared by the 1× kinase buffer. • (7) Add 15 μL of the mixture of 25/15×ATP and kinase substrate solution 21 to start reaction. • (8) The 384-well plate was centrifuged at 1000 rpm for 30 seconds and incubated at room temperature. • (9) 30 μL of the stop and detection buffer was added to stop the kinase reaction and centrifuged at 1000 rpm for 30 seconds. • (10) Collect data on Caliper EZ ReaderII. Data Analysis:
(§6) Conversion %_sample is conversion rate data of samples. Conversion %_min is mean value of negative control (conversion rate data without enzyme activation). Conversion %_max is mean positive control (conversion rate data without compound).
(§7) The log of concentration is on the X axis, and the percentage inhibition is on the Y axis. Fit the Quantitative effect curves with log (inhibitor) vs. response—Variable slope in GraphPad Prism5 obtain IC50 values. Equation used is Y=Bottom+(Top−Bottom)/(1+10^((Log IC50−X)*HillSlope)).

Aurora B = Aurora B (Homo sapiens (Human), UniProt Q96GD4); assay: Aurora B kinase assay (mobility shift assay); format: biochemical; details: ratio of Aurora B IC50 to Aurora A IC50
Chain of Aurora B (Q96GD4 whole entry): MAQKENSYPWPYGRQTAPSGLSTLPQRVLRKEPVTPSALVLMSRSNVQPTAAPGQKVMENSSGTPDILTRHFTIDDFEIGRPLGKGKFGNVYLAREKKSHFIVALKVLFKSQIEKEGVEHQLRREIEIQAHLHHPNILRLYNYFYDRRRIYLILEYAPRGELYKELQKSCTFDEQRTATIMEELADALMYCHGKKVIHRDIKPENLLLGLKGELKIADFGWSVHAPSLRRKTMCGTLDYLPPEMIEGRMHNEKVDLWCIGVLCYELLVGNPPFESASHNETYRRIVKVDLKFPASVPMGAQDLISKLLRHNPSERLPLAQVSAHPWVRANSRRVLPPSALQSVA
Procedure: as §1, §2, §3, §4, §5, §6, §7

Chain of Aurora A (O14965 whole entry): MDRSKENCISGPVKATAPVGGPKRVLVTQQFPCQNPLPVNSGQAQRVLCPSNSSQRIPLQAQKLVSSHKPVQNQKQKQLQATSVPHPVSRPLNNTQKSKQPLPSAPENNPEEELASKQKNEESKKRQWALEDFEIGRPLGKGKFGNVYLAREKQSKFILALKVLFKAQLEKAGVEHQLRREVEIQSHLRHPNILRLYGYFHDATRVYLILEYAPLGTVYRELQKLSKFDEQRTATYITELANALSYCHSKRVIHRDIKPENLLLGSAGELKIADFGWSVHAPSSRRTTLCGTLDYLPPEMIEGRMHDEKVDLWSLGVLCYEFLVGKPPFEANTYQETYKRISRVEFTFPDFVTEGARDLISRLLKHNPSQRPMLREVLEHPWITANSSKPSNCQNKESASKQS

Row | SMILES | IC50 (Aurora A) | IC50 Ratio Aur B/Aur A (Aurora B)
1 | Cc1cc(Nc2ccc(F)c(C[C@@]3(C(=O)O)CCN(Cc4cc(Cl)c(F)c(Cl)c4)[C@H](C)C3)n2)n[nH]1 [Example 23, (2R,4R)-1-(3,5-dichloro-4-fluorobenzyl)-4-((3-fluoro-6-((5-methyl-1H-pyrazol-3-yl)amino)pyridin-2-yl)methyl)-2-methylpiperidine-4-carboxylic acid] | 0.91 nM | 613
2 | Cc1cc(Nc2ncc(F)c(C[C@@]3(C(=O)O)CCN(Cc4cccc(Cl)c4F)[C@H](C)C3)n2)n[nH]1 [Example 26, (2R,4R)-1-(3-chloro-2-fluorobenzyl)-4-((5-fluoro-2-((5-methyl-1H-pyrazol-3-yl)amino)pyrimidin-4-yl)methyl)-2-methylpiperidine-4-carboxylic acid] | 2.9 nM | 1499
3 | Cc1cc(Nc2ccc(F)c(C[C@@]3(C(=O)O)CCN(Cc4ccc(F)c(Cl)c4F)[C@H](C)C3)n2)n[nH]1 [Example 27, (2R,4R)-1-(3-chloro-2,4-difluorobenzyl)-4-((3-fluoro-6-((5-methyl-1H-pyrazol-3-yl)amino)pyridin-2-yl)methyl)-2-methylpiperidine-4-carboxylic acid] | 0.81 nM | 622
4 | Cc1cc(Nc2cccc(C[C@@]3(C(=O)O)CCN(Cc4cccc(Cl)c4F)[C@H](C)C3)n2)n[nH]1 [Example 29, (2R,4R)-1-(3-chloro-2-fluorobenzyl)-2-methyl-4-((6-((5-methyl-1H-pyrazol-3-yl)amino)pyridin-2-yl)methyl)piperidine-4-carboxylic acid] | 1.4 nM | 586
5 | Cc1cc(Nc2nc(C[C@@]3(C(=O)O)CCN(Cc4cccc(Cl)c4F)[C@H](C)C3)cnc2C)n[nH]1 [Example 33, (2R,4R)-1-(3-chloro-2-fluorobenzyl)-2-methyl-4-((5-methyl-6-((5-methyl-1H-pyrazol-3-yl)amino)pyrazin-2-yl)methyl) piperidine-4-carboxylic acid] | 1.5 nM | 3757
6 | Cc1cc(Nc2nc(C[C@@]3(C(=O)O)CCN(Cc4cccc(Cl)c4F)[C@H](C)C3)c(F)cc2C)[nH]n1 [Example 35, (2R,4R)-1-(3-chloro-2-fluorobenzyl)-4-((3-fluoro-5-methyl-6-((3-methyl-1H-pyrazol-5-yl)amino)pyridin-2-yl)methyl)-2-methylpiperidine-4-carboxylic acid] | 1.9 nM | 2403
7 | Cc1cc(Nc2ccc(F)c(C[C@@]3(C(=O)O)CCN(C(=O)Cc4cccc(Cl)c4F)[C@H](C)C3)n2)n[nH]1 [Example 38, (2R,4R)-1-(2-(3-chloro-2-fluorophenyl)acetyl)-4-((3-fluoro-6-((5-methyl-1H-pyrazol-3-yl)amino)pyri-din-2-yl)methyl)-2-methyl-piperidine-4-carboxylic acid] | 0.85 nM | 986
8 | Cc1cc(Nc2ccc(F)c(C[C@@]3(C(=O)O)CCN(S(=O)(=O)c4ccccc4C(F)(F)F)[C@H](C)C3)n2)n[nH]1 [Example 39, (2R,4R)-4-((3-fluoro-6-((5-methyl-1H-pyrazol-3-yl)amino)pyridin-2-yl)methyl)-2-methyl-1-((2-(trifluoromethyl)phenyl)sulfonyl)piperidine-4-carboxylic acid] | 0.57 nM | 3019
9 | Cc1cc(Nc2ccc(F)c(C[C@@]3(C(=O)O)CCN([C@@H](C)c4cccc(Cl)c4F)[C@H](C)C3)n2)n[nH]1 [Example 41, (2R,4R)-1-(1-(3-chloro-2-fluorophenyl)ethyl)-4-((3-fluoro-6-((5-methyl-1H-pyrazol-3-yl)amino)pyridin-2-yl)methyl)-2-methylpiperidine-4-carboxylic acid] | 2.7 nM | 3682
10 | Cc1cc(Nc2cc(C)c(F)c(CC3(C(=O)O)CCN(Cc4cccc(Cl)c4F)CC3)n2)n[nH]1 [Example 51, 1-(3-chloro-2-fluorobenzyl)-4-((3-fluoro-4-methyl-6-((5-methyl-1H-pyrazol-3-yl)amino)-pyridin-2-yl)methyl)piper-idine-4-carboxylic acid] | 0.22 nM | 2833
11 | Cc1cc(Nc2cc(C)c(F)c(CC3(C(=O)O)CCN(Cc4cccc(F)c4F)CC3)n2)n[nH]1 [Example 52] | 1.3 nM | 1285
12 | Cc1cc(Nc2cc(C)c(F)c(CC3(C(=O)O)CCN(Cc4cccc(Cl)c4Cl)CC3)n2)n[nH]1 [Example 54] | 0.43 nM | 2041
13 | Cc1cc(Nc2cc(C)c(F)c(CC3(C(=O)O)CCN(Cc4c(F)ccc(Cl)c4F)CC3)n2)n[nH]1 [Example 55, 1-(3-chloro-2,6-difluoro-benzyl)-4-((3-fluoro-4-methyl-6-((5-methyl-1H-pyrazol-3-yl)-amino)pyridin-2-yl)methyl) piperidine-4-carboxylic acid] | 0.88 nM | 3835
14 | CCc1cc(Nc2cc(C)[nH]n2)nc(CC2(C(=O)O)CCN(Cc3cccc(Cl)c3F)CC2)c1F [Example 66, 1-(3-chloro-2-fluorobenzyl)-4-((4-ethyl-3-fluoro-6-((5-methyl-1H-pyrazol-3-yl)amino)-pyridin-2-yl)methyl)piperidine-4-carboxylic acid] | 0.57 nM | 716
15 | Cc1cc(Nc2cc(C#N)c(F)c(C[C@@]3(C(=O)O)CCN(Cc4cccc(Cl)c4F)[C@H](C)C3)n2)[nH]n1 [Example 67, (2R,4R)-1-(3-chloro-2-fluorobenzyl)-4-((4-cyano-3-fluoro-6-((3-methyl-1H-pyrazol-5-yl)amino)pyridin-2-yl)methyl)-2-methylpiperidine-4-carboxylic acid] | 1.6 nM | 759
16 | Cc1cc(Nc2nc(C[C@@]3(C(=O)O)CCN(Cc4cccc(Cl)c4F)[C@H](C)C3)c(F)c(Cl)c2F)n[nH]1 [Example 74] | 0.67 nM | 3358
17 | Cc1cc(Nc2nc(CC3(C(=O)O)CCN(Cc4cccc(Cl)c4F)CC3)cc(C)c2F)n[nH]1 [Example 79, 1-(3-chloro-2-fluorobenzyl)-4-((5-fluoro-4-methyl-6-((5-methyl-1H-pyrazol-3-yl)amino)-pyridin-2-yl)methyl)piper-idine-4-carboxylic acid] | 0.61 nM | 2036
18 | Cc1cc(Nc2cc(S(C)(=O)=O)c(F)c(C[C@@]3(C(=O)O)CCN(Cc4cccc(Cl)c4F)[C@H](C)C3)n2)n[nH]1 [Example 81, (2R,4R)-1-(3-chloro-2-fluorobenzyl)-4-((3-fluoro-6-((5-methyl-1H-pyrazol-3-yl)amino)-4-(methylsulfonyl)pyridin-2-yl)methyl)-2-methylpiperidine-4-carboxylic acid] | 0.77 nM | 1353
19 | Cc1cc(Nc2nc(C[C@@]3(C(=O)O)CCN(Cc4cccc(Cl)c4F)[C@H](C)C3)c(F)c(Cl)c2Cl)n[nH]1 [Example 84, (2R,4R)-1-(3-chloro-2-fluorobenzyl)-4-((4,5-dichloro-3-fluoro-6-((5-methyl-1H-pyrazol-3-yl)amino)pyridin-2-yl)methyl)-2-methylpiperidine-4-carboxylic acid] | 1.4 nM | 4026
20 | Cc1cc(Nc2nc(C[C@@]3(C(=O)O)CCN(Cc4cccc(Cl)c4F)[C@H](C)C3)cc(C#N)c2F)n[nH]1 [Example 90, (2R,4R)-1-(3-chloro-2-fluorobenzyl)-4-((4-cyano-5-fluoro-6-((5-methyl-1H-pyrazol-3-yl)amino)pyridin-2-yl)methyl)-2-methylpiperidine-4-carboxylic acid] | 0.54 nM | 1479
21 | Cc1cc(Nc2nc(C[C@@]3(C(=O)O)CCN(Cc4cccc(Cl)c4F)[C@H](C)C3)c(F)cc2F)n[nH]1 [Example 91, (2R,4R)-1-(3-chloro-2-fluorobenzyl)-4-((3,5-difluoro-6-((5-methyl-1H-pyrazol-3-yl)amino)pyridin-2-yl)methyl)-2-methylpiperidine-4-carboxylic acid] | 1.1 nM | 451
22 | Cc1cc(Nc2nc(CC3(C(=O)O)CCN(Cc4cccc(Cl)c4F)CC3)c(F)cc2F)n[nH]1 [Example 92] | 0.74 nM | 4393
23 | Cc1[nH]nc(Nc2ccc(F)c(CC3(C(=O)O)CCN(Cc4cccc(Cl)c4F)C(C)C3)n2)c1C (stereo not shown) [Example 102, 1-(3-chloro-2-fluorobenzyl)-4-((6-((4,5-dimethyl-1H-pyrazol-3-yl)-amino)-3-fluoropyridin-2-yl)-methyl)-2-methylpiperidine-4-carb-oxylic acid] | 0.93 nM | 804
